Calls of active or inactive are those of the source.
Experiments:
[1] = target: T1, Heat shock factor protein 1 (Mus musculus, UniProt P38532); assay: HSF1 potentiators in luciferase reporter cells, confirmation, cell-based, NIH3T3, luminescence, dose retest (AID 435004); assay type: functional;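 also: stress induced by proteasome inhibitor MG132 added 30 min after compound; luciferase reporter driven by HSF1 response element in NIH3T3 cells; actives raise luminescence as potentiators of the MG132 stress response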
T1 sequence (P38532 whole entry): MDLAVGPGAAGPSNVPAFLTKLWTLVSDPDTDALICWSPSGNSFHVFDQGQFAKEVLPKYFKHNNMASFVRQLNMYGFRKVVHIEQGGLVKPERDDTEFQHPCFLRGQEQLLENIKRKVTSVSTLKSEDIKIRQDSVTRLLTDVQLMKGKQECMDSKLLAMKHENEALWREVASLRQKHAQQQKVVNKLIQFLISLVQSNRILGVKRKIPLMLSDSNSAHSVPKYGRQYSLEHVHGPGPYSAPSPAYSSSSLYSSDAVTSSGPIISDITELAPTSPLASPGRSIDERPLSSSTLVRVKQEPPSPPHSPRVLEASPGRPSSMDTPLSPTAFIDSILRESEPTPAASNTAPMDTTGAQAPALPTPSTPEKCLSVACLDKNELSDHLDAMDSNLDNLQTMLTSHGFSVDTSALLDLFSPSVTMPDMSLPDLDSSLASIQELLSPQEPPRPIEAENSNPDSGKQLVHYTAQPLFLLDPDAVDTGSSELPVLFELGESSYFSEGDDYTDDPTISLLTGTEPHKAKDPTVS

Cytochrome P450 2C19 = Cytochrome P450 2C19 (Homo sapiens, UniProt P33261); assay: Cytochrome panel assay with activity outcomes. Panel member name: p450-cyp2c19 Compounds with AC50 equal or less than 10 uM are considered active; assay type: functional; conditions: read-out: AC50
Cytochrome P450 1A2 = target: T2, Cytochrome P450 1A2 (Homo sapiens, UniProt P05177);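 also: PubChem cytochrome P450 panel assay, CYP1A2 panel member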
T2 sequence (P05177 whole entry): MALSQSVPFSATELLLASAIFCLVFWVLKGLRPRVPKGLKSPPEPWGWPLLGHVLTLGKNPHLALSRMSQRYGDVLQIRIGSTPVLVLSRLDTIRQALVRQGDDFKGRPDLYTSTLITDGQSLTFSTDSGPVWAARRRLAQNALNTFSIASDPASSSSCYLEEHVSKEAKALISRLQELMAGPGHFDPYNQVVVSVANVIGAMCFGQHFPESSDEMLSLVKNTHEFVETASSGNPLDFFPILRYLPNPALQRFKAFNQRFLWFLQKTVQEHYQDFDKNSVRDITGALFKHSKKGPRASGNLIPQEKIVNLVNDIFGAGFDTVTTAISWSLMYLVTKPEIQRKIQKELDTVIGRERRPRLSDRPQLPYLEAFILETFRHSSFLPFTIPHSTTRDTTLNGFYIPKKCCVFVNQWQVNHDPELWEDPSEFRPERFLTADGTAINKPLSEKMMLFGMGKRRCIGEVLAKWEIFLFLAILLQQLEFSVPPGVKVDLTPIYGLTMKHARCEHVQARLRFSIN

Cytochrome P450 3A4 = Cytochrome P450 3A4 (Homo sapiens, UniProt P08684);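 also: CYP3A4 tested as one member of a cytochrome P450 panel screen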
Fatty acid synthase [2] = target: T3, Fatty acid synthase (Homo sapiens, UniProt P49327); assay: FAS thioesterase domain inhibitors, dose response, biochemical, endpoint fluorescence intensity, uHTS hits (AID 624327); assay type: functional;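 also: fluorescence from hydrolysis of an O-methyl fluorescein acyl ester substrate by the enzyme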
Fatty acid synthase [3] = target: T3, Fatty acid synthase; assay: FAS thioesterase domain inhibitors, dose response, biochemical, kinetic fluorescence intensity (AID 624326); assay type: functional;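 also: rate of fluorescence rise from hydrolysis of a fluorogenic O-methyl fluorescein ester substrate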
INS1 = assay: beta cell apoptosis inhibitors, cytokine rescue, dose response, luminescence, retest (AID 449756); assay type: functional, cell-based; conditions: Rattus norvegicus;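 also: cell death triggered by IL-1 beta plus TNF-alpha plus IFN-gamma mixture; protective hits raise ATP signal compared with cytokine alone wells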
[4] = Shn3 3'UTR reporter inhibitors, dose response, cell-based, Clone20 osteoblasts, firefly luciferase, cherry-picked (AID 624132); assay type: functional;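 also: firefly luciferase luminescence from reporter carrying the Shn3 3'UTR in osteoblasts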
[5] = HepG2 cell cytotoxicity, dose response, cytotoxicity control for Shn3 inhibitor project, CellTiter-Glo, cherry-picked (AID 624134); assay type: functional, cell-based
[6] = control 3'UTR Renilla luciferase suppression, dose response, counter-screen for Shn3 inhibitor project, cell-based, Clone20-Shn3RL, cherry-picked (AID 624133); assay type: functional
Cytochrome P450 2C9 = Cytochrome P450 2C9 (Homo sapiens, UniProt P11712)
[7] = target: T1, Heat shock factor protein 1; assay: inhibition of MG132-induced HSE-luciferase signal, confirmation, cell-based, NIH3T3, luminescence, dose retest (AID 2382); assay type: functional;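 also: NIH3T3 fibroblasts with HSF1-driven luciferase reporter stressed by proteasome inhibitor MG132; luminescence from HSF1-driven luciferase expression after 8 hours of MG132 stress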
[8] = inhibitors of intracellular T. cruzi replication, confirmation, NIH3T3 host cells, beta-gal luminescence (AID 2044); assay type: functional, cell-based;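 also: intracellular parasites grown in NIH/3T3 mouse fibroblasts as host cells; luminescent beta-galactosidase reporter signal from transgenic T. cruzi replicating inside host cells; inhibitors lower the luminescence signal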
[9] = microbe, parasite or virus in culture; assay type: functional; conditions: Mycobacterium tuberculosis
[10] = cytotoxicity toward NIH3T3 fibroblasts, dose response, counter-screen, cell-based, ATP luminescence, mouse fibroblasts (AID 2010); assay type: functional;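 also: cells exposed to compound for about 90 hours before reading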
[11] = THP-1 cell cytotoxicity, dose response, cytotoxicity control for non-replicating M. tuberculosis project (AID 489025); assay type: functional
[12] = Vero E6 cell cytotoxicity, dose response, cytotoxicity control for non-replicating M. tuberculosis project, secondary assay (AID 492998); assay type: functional, VeroE6; conditions: Vero C1008
cells = assay type: functional
[13] = target: T4, RNA-binding protein pos-1 (Caenorhabditis elegans, UniProt G5EF15); assay: inhibitors of POS-1/mex-3 RNA binding, dose response, biochemical, fluorescence polarization (AID 1964);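 also: purified POS-1 fused to maltose binding protein made in E. coli; potency of compounds blocking POS-1 binding to fluorescent RNA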
T4 sequence (G5EF15 whole entry): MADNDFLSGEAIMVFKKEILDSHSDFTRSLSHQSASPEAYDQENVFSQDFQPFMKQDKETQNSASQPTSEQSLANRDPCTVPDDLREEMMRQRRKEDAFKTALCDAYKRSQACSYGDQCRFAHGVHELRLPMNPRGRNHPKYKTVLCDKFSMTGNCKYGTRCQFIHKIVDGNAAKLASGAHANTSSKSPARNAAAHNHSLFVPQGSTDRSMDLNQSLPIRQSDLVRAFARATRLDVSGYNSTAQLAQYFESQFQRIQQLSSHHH

[14] = target: T5, Zinc finger protein mex-5 (Caenorhabditis elegans, UniProt Q9XUB2); assay: MEX-5/TCR-2 RNA interaction inhibitors, dose response, biochemical, C. elegans, fluorescence polarization (AID 1960)
T5 sequence (Q9XUB2 whole entry): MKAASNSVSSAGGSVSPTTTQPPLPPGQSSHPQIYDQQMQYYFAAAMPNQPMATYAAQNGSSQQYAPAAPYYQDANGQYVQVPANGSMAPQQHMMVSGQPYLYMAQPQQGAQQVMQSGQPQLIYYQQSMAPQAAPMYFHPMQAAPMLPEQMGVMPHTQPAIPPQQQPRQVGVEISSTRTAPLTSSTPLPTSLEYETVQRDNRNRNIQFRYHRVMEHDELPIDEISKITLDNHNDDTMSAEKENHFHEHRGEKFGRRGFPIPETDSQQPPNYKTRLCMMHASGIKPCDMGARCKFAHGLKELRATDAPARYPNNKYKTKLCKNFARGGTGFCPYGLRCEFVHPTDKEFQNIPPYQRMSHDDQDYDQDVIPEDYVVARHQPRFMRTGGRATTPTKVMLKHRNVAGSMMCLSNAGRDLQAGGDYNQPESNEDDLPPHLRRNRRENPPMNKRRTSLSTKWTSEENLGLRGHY

H9c2 = assay: cells; assay type: functional, cell-based; conditions: Rattus norvegicus, H9c2, Myocardium;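 also: confirmatory concentration-response retest of ultra-high-throughput screening hits for modulation of myocardial damage; cell death induced by hydrogen peroxide oxidative stress; compound pretreatment for 60 min then peroxide exposure for 2 h; potency is for protecting the cells against peroxide damage rather than for killing them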
[15] = inhibitors of clade B AD8 Env fusion, dose response, cell-based, cherry-pick (AID 652062); assay type: functional;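 also: luciferase signal from cell-cell fusion driven by HIV-1 clade B AD8 Env; potency is for inhibitors of fusion seen as a drop in luminescence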

Sequence of Cytochrome P450 3A4 (P08684 whole entry, the tested form may be a part): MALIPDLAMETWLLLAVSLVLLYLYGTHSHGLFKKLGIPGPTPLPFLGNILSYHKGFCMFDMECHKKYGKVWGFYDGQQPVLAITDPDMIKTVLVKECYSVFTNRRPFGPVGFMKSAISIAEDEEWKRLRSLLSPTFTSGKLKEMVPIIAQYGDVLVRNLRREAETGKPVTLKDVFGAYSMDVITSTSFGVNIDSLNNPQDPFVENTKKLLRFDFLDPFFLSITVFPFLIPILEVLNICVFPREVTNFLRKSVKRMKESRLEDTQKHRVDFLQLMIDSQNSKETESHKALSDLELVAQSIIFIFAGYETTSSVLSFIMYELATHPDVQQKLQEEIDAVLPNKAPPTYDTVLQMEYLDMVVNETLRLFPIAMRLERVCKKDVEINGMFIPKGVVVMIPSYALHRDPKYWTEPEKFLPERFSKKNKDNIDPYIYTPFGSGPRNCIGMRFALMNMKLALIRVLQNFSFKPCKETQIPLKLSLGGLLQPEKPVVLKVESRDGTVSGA
T3 sequence (P49327 whole entry, the tested form may be a part): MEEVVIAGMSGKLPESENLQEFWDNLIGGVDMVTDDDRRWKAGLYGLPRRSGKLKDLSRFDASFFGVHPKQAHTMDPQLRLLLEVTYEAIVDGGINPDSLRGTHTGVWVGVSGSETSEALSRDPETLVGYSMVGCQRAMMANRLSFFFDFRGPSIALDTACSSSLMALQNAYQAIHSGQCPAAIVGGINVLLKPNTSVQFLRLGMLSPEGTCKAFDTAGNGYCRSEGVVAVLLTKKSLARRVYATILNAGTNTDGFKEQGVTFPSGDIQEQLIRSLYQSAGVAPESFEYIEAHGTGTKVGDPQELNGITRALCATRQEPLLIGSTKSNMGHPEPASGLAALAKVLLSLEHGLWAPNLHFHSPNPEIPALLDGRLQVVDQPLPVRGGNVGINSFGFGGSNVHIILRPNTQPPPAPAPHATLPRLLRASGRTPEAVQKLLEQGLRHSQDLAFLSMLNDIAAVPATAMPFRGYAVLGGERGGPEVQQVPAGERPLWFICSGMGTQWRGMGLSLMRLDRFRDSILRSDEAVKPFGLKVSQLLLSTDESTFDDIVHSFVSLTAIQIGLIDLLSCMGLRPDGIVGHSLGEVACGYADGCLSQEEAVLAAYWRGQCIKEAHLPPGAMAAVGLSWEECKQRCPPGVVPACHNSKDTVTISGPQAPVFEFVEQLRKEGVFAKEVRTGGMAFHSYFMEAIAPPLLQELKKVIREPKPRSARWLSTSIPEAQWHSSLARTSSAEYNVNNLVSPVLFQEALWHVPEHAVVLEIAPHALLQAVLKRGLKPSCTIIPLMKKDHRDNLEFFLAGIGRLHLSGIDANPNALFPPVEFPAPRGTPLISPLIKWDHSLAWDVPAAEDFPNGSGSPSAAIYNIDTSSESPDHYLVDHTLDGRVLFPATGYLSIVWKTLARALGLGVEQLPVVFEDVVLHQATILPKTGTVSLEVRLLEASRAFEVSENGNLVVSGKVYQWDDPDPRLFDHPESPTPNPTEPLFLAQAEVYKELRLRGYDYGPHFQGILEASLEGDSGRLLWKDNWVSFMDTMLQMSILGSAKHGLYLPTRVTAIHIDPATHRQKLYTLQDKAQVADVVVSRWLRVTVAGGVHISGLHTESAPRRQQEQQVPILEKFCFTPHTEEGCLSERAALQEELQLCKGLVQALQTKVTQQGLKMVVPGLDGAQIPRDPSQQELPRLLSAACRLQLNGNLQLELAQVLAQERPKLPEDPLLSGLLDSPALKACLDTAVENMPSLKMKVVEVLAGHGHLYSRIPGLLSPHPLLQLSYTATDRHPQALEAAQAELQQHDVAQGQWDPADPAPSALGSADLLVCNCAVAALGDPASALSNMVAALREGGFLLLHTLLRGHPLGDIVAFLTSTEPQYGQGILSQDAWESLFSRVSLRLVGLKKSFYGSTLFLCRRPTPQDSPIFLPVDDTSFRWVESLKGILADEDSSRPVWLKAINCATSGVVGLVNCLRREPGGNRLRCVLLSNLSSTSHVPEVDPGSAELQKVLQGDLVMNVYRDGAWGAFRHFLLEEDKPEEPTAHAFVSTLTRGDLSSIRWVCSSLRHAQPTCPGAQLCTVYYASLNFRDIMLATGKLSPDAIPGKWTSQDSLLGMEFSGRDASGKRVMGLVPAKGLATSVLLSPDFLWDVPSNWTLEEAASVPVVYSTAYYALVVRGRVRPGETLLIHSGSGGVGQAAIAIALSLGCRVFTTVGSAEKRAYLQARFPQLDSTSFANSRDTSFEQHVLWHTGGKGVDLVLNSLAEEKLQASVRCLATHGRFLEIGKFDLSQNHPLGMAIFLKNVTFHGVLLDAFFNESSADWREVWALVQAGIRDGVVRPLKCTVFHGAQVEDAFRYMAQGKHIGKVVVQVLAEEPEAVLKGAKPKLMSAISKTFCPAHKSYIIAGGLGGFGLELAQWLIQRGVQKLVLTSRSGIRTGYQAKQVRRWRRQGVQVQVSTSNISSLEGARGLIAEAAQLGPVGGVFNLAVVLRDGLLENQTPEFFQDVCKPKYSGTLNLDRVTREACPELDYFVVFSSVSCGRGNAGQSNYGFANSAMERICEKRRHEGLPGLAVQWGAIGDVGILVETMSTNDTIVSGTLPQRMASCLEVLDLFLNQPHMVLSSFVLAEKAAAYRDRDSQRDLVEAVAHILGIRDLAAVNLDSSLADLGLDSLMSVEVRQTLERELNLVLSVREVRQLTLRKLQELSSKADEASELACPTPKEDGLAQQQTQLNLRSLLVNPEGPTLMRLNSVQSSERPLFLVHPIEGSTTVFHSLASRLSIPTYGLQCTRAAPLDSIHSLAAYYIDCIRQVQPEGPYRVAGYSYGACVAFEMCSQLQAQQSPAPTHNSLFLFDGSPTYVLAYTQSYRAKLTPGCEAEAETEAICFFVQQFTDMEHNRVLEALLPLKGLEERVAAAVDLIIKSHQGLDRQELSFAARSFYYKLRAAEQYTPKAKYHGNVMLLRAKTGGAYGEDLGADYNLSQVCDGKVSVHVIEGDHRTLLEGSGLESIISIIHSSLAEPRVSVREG
Sequence of Cytochrome P450 2C19 (P33261 whole entry): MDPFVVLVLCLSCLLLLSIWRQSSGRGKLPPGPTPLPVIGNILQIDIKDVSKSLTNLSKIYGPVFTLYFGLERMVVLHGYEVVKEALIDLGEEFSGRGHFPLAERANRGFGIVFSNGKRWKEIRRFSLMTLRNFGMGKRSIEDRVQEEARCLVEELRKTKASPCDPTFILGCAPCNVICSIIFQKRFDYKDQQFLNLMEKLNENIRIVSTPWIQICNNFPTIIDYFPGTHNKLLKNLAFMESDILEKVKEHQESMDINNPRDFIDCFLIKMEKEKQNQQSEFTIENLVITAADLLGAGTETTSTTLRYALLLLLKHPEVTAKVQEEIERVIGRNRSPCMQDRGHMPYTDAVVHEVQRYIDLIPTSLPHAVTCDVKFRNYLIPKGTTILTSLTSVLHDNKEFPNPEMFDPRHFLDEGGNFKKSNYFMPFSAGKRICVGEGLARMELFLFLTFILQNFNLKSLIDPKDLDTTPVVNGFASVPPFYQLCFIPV
Sequence of Cytochrome P450 2C9 (P11712 whole entry): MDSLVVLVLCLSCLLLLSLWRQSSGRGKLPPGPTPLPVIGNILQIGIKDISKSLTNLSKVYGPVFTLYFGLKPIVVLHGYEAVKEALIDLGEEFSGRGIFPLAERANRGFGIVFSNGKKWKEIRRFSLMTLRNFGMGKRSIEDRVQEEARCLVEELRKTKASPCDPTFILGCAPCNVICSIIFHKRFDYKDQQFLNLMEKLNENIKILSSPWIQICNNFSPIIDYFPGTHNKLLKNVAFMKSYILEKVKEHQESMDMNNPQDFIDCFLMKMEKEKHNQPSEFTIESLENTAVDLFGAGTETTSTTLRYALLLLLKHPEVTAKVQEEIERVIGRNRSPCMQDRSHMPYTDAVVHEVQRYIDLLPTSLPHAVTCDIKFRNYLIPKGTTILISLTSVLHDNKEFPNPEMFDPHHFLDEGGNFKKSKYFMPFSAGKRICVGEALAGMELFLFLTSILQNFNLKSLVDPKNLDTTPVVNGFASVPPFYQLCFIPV

For CCOc1ccc2nc(COC(=O)c3cccc([N+](=O)[O-])c3)c(C(C)=O)[n+]([O-])c2c1, the EC50 [1] was > 260 µM (inactive).

For O=C(Nc1ccccc1)N1CCC2(CC1)CCN(C(=O)c1ccco1)CC2, the AC50 (Cytochrome P450 2C19) was 39.8 µM (inconclusive), the AC50 (Cytochrome P450 1A2) was 10 µM (inconclusive) and the AC50 (Cytochrome P450 3A4) was “inconclusive”.

For O=C(Cn1cc(C(=O)C2CC2)c2ccccc21)NCc1ccc2c(c1)OCO2, the IC50 (Fatty acid synthase [2]) was 14.3 µM (active) and the IC50 (Fatty acid synthase [3]) was 8.36 µM (active).

For COc1ccc(Nc2nc(N3CCCCC3)c3ccccc3n2)cc1, the AC50 (INS1) was 4.63 µM (active), the AC50 [4] was 2.11 µM (active) and the AC50 [5] was 36.5 µM (active). For the same molecule, the AC50 [6] was 6.45 µM (active), the AC50 (Cytochrome P450 2C9) was 17.8 µM (inconclusive) and the AC50 (Cytochrome P450 3A4) was “inconclusive”.

In the case of O=C(NC1CCCCC1)c1cnn2c(C(F)(F)F)cc(-c3ccco3)nc12, the EC50 [1] is reported as > 260 µM (inactive).

With COc1ccc([C@@H]2[C@@H]3C(=O)N(C(C)(C)C)C(=O)[C@@H]3[C@]3(Cc4ccccc4)C(=O)N(c4cccc(Br)c4)C(=O)N23)cc1 the IC50 (Fatty acid synthase [2]) was 21.5 µM (inactive) and the IC50 (Fatty acid synthase [3]) was 13.7 µM (active).

With c1ccn(-c2ccc(N3CCOCC3)cc2)c1 the EC50 [7] was > 195 µM (not active) and the AC50 (Cytochrome P450 3A4) was “inconclusive”.

For O=C(Oc1ccccc1)N1CCC2(CC1)CCN(c1ccccn1)CC2, the AC50 (Cytochrome P450 2C19) was 20 µM (inconclusive), the AC50 (Cytochrome P450 2C9) was 31.6 µM (inconclusive) and the AC50 (Cytochrome P450 3A4) was “inconclusive”.

For Cc1c(Cl)cccc1NC(=O)CN1CCC(C(O)(c2ccccc2)c2ccccc2)CC1, the EC50 [8] was 2.33 µM (active), the CC50 [9] was > 40 µM (active) and the EC50 [10] was > 30 µM (not active). The AC50 (Cytochrome P450 3A4) was “inconclusive”.

With O=[N+]([O-])c1cccc(NC(S)=NCCc2ccccc2)c1 the IC50 (Fatty acid synthase [2]) was 10.1 µM (active) and the IC50 (Fatty acid synthase [3]) was 9.04 µM (active).

In the case of Cc1cc(Br)ccc1OCC(=O)NNC(=O)c1cnccn1, the CC50 [11] is reported as > 40 µM (active), the CC50 [12] is reported as 17.8 µM (active) and the IC50 (cells) is reported as 8.2 µM (active).

In the case of O=C(COc1ccc([N+](=O)[O-])cc1)N1CCc2ccccc2C1, the IC50 (Fatty acid synthase [2]) is reported as 6.92 µM (active) and the IC50 (Fatty acid synthase [3]) is reported as 3.46 µM (active).

In the case of CNc1nc(SC(C)C(=O)Nc2ccc(Cl)c(Cl)c2)nc(N2CCOCC2)n1 (configuration not stated), the EC50 [1] is reported as > 260 µM (inactive).

In the case of COCOc1cc(O)c(C(=O)/C=C/c2ccccc2)c(OCOC)c1, the EC50 [1] is reported as 22.1 µM (active).

In the case of Cc1nc2ncnn2c(C)c1CCC(=O)N1CCN(C(=O)c2ccco2)CC1, the AC50 (Cytochrome P450 3A4) is reported as “inconclusive”.

With CC(C)(C)NC(=O)CC1C[C@H](C(=O)N2CCOCC2)[C@@]2(CCC3CCCC3)c3[nH]c4ccccc4c3CCN2C1=O (some centres not stated) the IC50 (Fatty acid synthase [2]) was 2.31 µM (active) and the IC50 (Fatty acid synthase [3]) was 4.15 µM (active).

For O=C(O)/C(=C/c1ccc(Cl)c([N+](=O)[O-])c1)c1ccc(S(=O)(=O)N2CCCCC2)s1, the IC50 (Fatty acid synthase [2]) was 15.4 µM (active) and the IC50 (Fatty acid synthase [3]) was 12.6 µM (active).

With Nc1c(C(=O)N/N=C/c2cccnc2)oc2nc(-c3ccccc3)cc(-c3ccco3)c12 the EC50 [13] was > 300 µM (not active), the EC50 [14] was > 300 µM (not active) and the IC50 (H9c2) was > 79 µM (inactive).

With O=C(C[C@@H]1C[C@@H]2c3cc(NS(=O)(=O)c4ccc(F)cc4)ccc3O[C@@H]2[C@H](CO)O1)NCc1ccccc1F the AC50 [15] was 1.75 µM (active).

Source: ChEMBL document CHEMBL1201862, “PubChem BioAssay data set” (2004)
